From patent publication US6869971B1, “UCS1025 derivatives” (Kyowa Hakko Kogyo Co., Ltd., priority 1999, dated 2005) come the findings set out here.

Converted amounts (≈) assume the structure as drawn.

What all share (assay type): cell-based
Experiment [1] relates to human renal carcinoma cell line ACHN. Kind of experiment: Growth inhibition action on human renal carcinoma cell line ACHN. The note with it: ACHN cells, 72 hours culture with compound, Cell proliferation kit II, read-out: IC50 (concentration inhibiting 50% of the cell growth). Here is the method: Cells of human renal carcinoma cell line ACHN adjusted to a density of 3×10^4 cells/ml with RPMI (Roswell Park Memorial Institute) medium comprising 10% fetal bovine serum and 2 mmol/l glutamine were dispensed in a volume of 50 μl into each well of a 96 well microtiter plate and cultured at 37° C. for 24 hours in a carbon dioxide incubator. Each of the test compounds serially diluted with the above medium was added to each well in a volume of 50 μl, following by culturing at 37° C. for 72 hours in a carbon dioxide incubator. After discarding the culture supernatant, each well was washed twice with 0.1 ml of phosphate buffered saline (PBS), and then 0.1 ml of the above medium was again added to each well. Cell proliferation kit II (Boehringer Mannheim) was used for the measurement of the number of cells in each well. After addition of a color-producing reagent and subsequent incubation at 37° C. for 3 hours in a carbon dioxide incubator, absorbance at 490 nm and 655 nm was measured using a microplate reader, and a value (differential absorbance) was calculated by subtracting the absorbance at 655 nm from the absorbance at 490 nm in each well. By comparing the differential absorbance obtained from untreated cells and that obtained from cells treated with a predetermined concentration of each test compound, the concentration of the test compound capable of inhibiting 50% of the cell growth was calculated and expressed as IC50.

Experiment [2] deals with Bacillus subtilis ATCC 10707. Kind of experiment: Antibacterial activity (MIC), agar dilution method. The note with it: ATCC10707, read-out: minimum inhibitory concentration (MIC), BS. Here is the method: (§1) Antibacterial activities (minimum inhibitory concentration (MIC: mg/ml)) of Compounds (I) on various bacteria are shown in Table 2. The antibacterial activity was measured by an agar dilution method using a medium comprising 3 g/L Bacto-Tryptone (manufactured by Difco), 3 g/L meat extract, 1 g/L yeast extract, 1 g/L glucose and 16 g/L agar.

In experiment [3] the test system is Enteroccccus hirae ATCC 10541. Kind of experiment: Antibacterial activity (MIC), agar dilution method. The note with it: read-out: minimum inhibitory concentration (MIC), ER. Here is the method:
as §1

For the compound `COC(=O)[C@@H]1CCN2C(=O)C(C(=O)C3[C@H]4CCCC[C@@H]4C=C[C@@H]3C)=C[C@]12O` (stereo partly shown) [Compound 1], the IC50 in experiment [1] worked out at 4.4 µM. The MIC in experiment [2] and in experiment [3] was 520 µg/mL (≈ 1.39 mM) in each case.

Turning to `CCN(CC)C(=O)[C@@H]1CCN2C(=O)C(C(=O)C3[C@H]4CCCC[C@@H]4C=C[C@@H]3C)=C[C@]12O` (stereo partly shown) [Compound 6], in experiment [1], the IC50 was determined as 5.6 µM. The MIC in experiment [2] amounted to 1800 µg/mL (≈ 4.34 mM); in experiment [3], 3600 µg/mL (≈ 8.68 mM).

For the compound `CCCN(CCC)C(=O)[C@@H]1CCN2C(=O)C(C(=O)C3[C@H]4CCCC[C@@H]4C=C[C@@H]3C)=C[C@]12O` (stereo partly shown) [Compound 7], the MIC in experiment [2] came out at 1300 µg/mL (≈ 2.94 mM); in experiment [3] it was 5000 µg/mL (≈ 11.3 mM).

In the case of `CCCCN(CCCC)C(=O)[C@@H]1CCN2C(=O)C(C(=O)C3[C@H]4CCCC[C@@H]4C=C[C@@H]3C)=C[C@]12O` (stereo partly shown) [Compound 8], the IC50 in experiment [1] was found to be 2.7 µM. Besides, the MIC in experiment [2] turned out to be 380 µg/mL (≈ 0.807 mM); in experiment [3], 1500 µg/mL (≈ 3.19 mM).

Consider `CCS[C@@H]1[C@H](C(=O)C2[C@H]3CCCC[C@@H]3C=C[C@@H]2C)C(=O)N2CC[C@@H](C(=O)N(CC)CC)[C@@]12O` (stereo partly shown) [Compound 12], for which the IC50 in experiment [1] came to 5.7 µM.

With `C[C@H]1C=C[C@H]2CCCC[C@@H]2C1C(=O)C1Cc2cccn2C1=O` (stereo partly shown) [Compound 16], the IC50 in experiment [1] was found to be 64 µM.

As for `C[C@H]1C=C[C@H]2CCCC[C@@H]2C1C(=O)[C@@]1(Br)C(=O)N2CC[C@H]3C(=O)O[C@@H]1[C@]32O` (stereo partly shown) [Compound 32], the MIC in experiment [2] and in experiment [3] was 13000 µg/mL (≈ 29.7 mM) throughout.

Consider `C=CCOC(=O)[C@@H]1CCN2C(=O)C3(C(=O)C4[C@H]5CCCC[C@@H]5C=C[C@@H]4C)O[C@@H]3[C@]12O` (stereo partly shown) [Compound 36], for which the MIC in experiment [2] and in experiment [3] was 48000 µg/mL (≈ 116 mM) each time.

As for `CCN(CC)C(=O)[C@@H]1CCN2C(=O)C3(C(=O)C4[C@H]5CCCC[C@@H]5C=C[C@@H]4C)O[C@@H]3[C@]12O` (stereo partly shown) [Compound 38], the figures for the MIC in experiment [2] and in experiment [3] were 16000 µg/mL (≈ 37.2 mM) and 8100 µg/mL (≈ 18.8 mM), respectively.
